Data taken from patent publication US20230047825A1, “ANTIMICROBIAL PEPTIDES” (priority 2019, published 2023).
In brackets after ≈: the same amount, converted by molar mass. Like-named read-outs stand apart in the source and are kept apart here.

How the values were obtained:
[1] = test system: Staphylococcus aureus ATCC 29213; test: microbe, parasite or virus in culture; conditions: for MIC: Staphylococcus aureus
Protocol: (§1) The S. aureus strains ATCC 29213, ATCC 19636, ATCC 33591 (MRSA), BAA-1556 (MRSA USA 300) were obtained from the American Type Culture Collection (ATCC). […] The species identity was confirmed with 16S rRNA analysis.
(§2) Two broth mediums were used, Mueller Hinton Broth and RPMI 1640+5% fetal bovine serum. Test substances were evaluated in 11-point titrations and performed in duplicate.
(§3) The direct colony suspension method was used to prepare inoculated broth. Isolated colonies were taken from an 18-24 h culture plate. Optical density measurements (OD620nm) were used to estimate the bacterial density. […] The stock solutions were diluted by 2-fold serial titrations with their respective vehicles for a total of 11 concentrations.
(§4) A 4 μL aliquot of each dilution was added to 196 μL of broth medium seeded with the organism in wells of a sterilized 96 well polypropylene plate (Nunc™ 249949) using aluminum foil as cover. The final bacterial count was 2 to 8×10^5 CFU/mL. […] The final test article concentration range was 32 to 0.0313 μg/mL.
(§5) Each test substance dilution was evaluated in duplicate on one test occasion. […] Plates were incubated at 35-37° C. for 18 h. The test plates were visually examined and each well was visually scored for growth or complete inhibition of growth. The MIC value was recorded.

[2] = test system: Staphylococcus aureus ATCC BAA-1556 (USA300, MRSA); test: microbe, parasite or virus in culture; conditions: for MIC: Staphylococcus aureus
Protocol: as §1, §2, §3, §4, §5

[3] = test system: Staphylococcus aureus ATCC 33591 (MRSA); test: microbe, parasite or virus in culture; conditions: for MIC: Staphylococcus aureus
Protocol: as §1, §2, §3, §4, §5

[4] = test system: Staphylococcus aureus ATCC 19636 (Smith); test: microbe, parasite or virus in culture; conditions: for MIC: Staphylococcus aureus
Protocol: as §1, §2, §3, §4, §5

EMRSA-15 lung infection = test system: EMRSA-15 lung infection
Protocol: Murine EMRSA-15 lung infection model. In one embodiment this was carried out using the method described previously,^58 an overnight culture of EMRSA-15 was prepared in tryptic soy broth (TSB). EMRSA-15 was cultured in TSB overnight at 37° C., adjusted to a starting OD600 of 0.025, and grown for additional 4 h for agar beads preparation. EMRSA-15 was embedded into agar beads by mixing the overnight culture with molten tryptic soy agar, which was then spun into warmed mineral oil. The preparation was cooled and centrifuged at 2,700 g, the remaining oil was eliminated and the beads were washed in sterile PBS. The colony forming unit (cfu) content of the beads slurry was subsequently quantified on TSA plates and the beads slurry then diluted to either 2×10^7 cfu/ml in sterile PBS to deliver a final dose of either 1×10^6 cfu/mouse. Animal work was performed in accordance with the Animals (Scientific Procedures) Act of 1986 (United Kingdom). On day 0, male C57B16J mice (8-10 weeks, Charles River) were anesthetized under Isoflurane and 50 μl inoculum of EMRSA-15 embedded in agar beads (10^6 cfu/mouse) was instilled directly into the respiratory tract via oropharyngeal dosing (o.a) to reduce severity associated with surgery. Sham control mice were inoculated with sterile PBS agar beads. […] Body weight was measured daily, and animals monitored at regular intervals for signs of pain and distress. 48 hours post pulmonary infection, animals were terminally euthanized using 25% Urethane via intra-peritoneal injection. Lungs, were removed and homogenized in 2 ml PBS. Samples were serially diluted 1:10 in PBS and plated for CFU count. Lung homogenates were then centrifuged at 14000 rpm for 30 min at 4° C. and the supernatants were stored at −80° C. for future analysis. For bronchoalveolar lavage fluid collection and analysis (total and differential cell count), a 22-gauge catheter was inserted into the trachea and BAL was recovered by instillation of 0.5 ml of sterile PBS three times and total cells counts were performed by adding Turks stain in a 1:1 ratio. Total cells were then enumerated on an improved Naubauer haemocytometer. BAL fluid was then centrifuged, and supernatants were stored at −20° C. Cytospin slides were prepared and 100 μl of BAL was added into a cytospin funnel and centrifuged at 1000 rpm for 1 minute on a medium acceleration. The slides were then stained using Diff-Quick (Dade, Biomap, Italy).
More suitably Murine EMRSA-15 lung infection model was carried out using the method described previously,^58 an overnight culture of EMRSA-15 was prepared in tryptic soy broth (TSB). EMRSA-15 was cultured in TSB overnight at 37° C., adjusted to a starting OD600 of 0.025, and grown for additional 4 h for agar beads preparation. EMRSA-15 was embedded into agar beads by mixing the overnight culture with molten tryptic soy agar, which was then spun into warmed mineral oil. The preparation was cooled and centrifuged at 2,700 g, the remaining oil was eliminated, and the beads were washed in sterile PBS. The colony forming unit (CFU) content of the beads slurry was subsequently quantified on TSA plates and the beads slurry then diluted to either 2×10^7 CFU/ml in sterile PBS to deliver a final dose of either 1×10^6 CFU/mouse. Animal work was performed in accordance with the Animals (Scientific Procedures) Act of 1986 (United Kingdom). On day 0, male C57B16J mice (8-10 weeks, Charles River) were anesthetized under Isoflurane and 50 μl inoculum of EMRSA-15 embedded in agar beads (10^6 CFU/mouse) was instilled directly into the respiratory tract via oropharyngeal dosing (o.a.) to reduce severity associated with surgery. Sham control mice were inoculated with sterile PBS agar beads.

[5] = test system: Staphylococcus aureus VRS-2 (VanA, VRSA); test: microbe, parasite or virus in culture; conditions: for MIC: Staphylococcus aureus, VRSA
Protocol: as §1, §2, §3, §4, §5

HEK293 = test: Cytotoxicity assay (XTT); format: cell-based, human; conditions: unit not given
Protocol: (§6) Cytotoxicity assay. HeLa and HEK293 cell lines were purchased from ECACC and cultured in Eagle's Minimum Essential Media (EMEM) containing glutamine, supplemented with 10% FBS and 1× non-essential amino acids (NEAA) at 37° C., 10% CO2. Cytotoxicity was measured by incubating starter cultures of cells for 24 hours in a 96 well plate, gently removing the supernatant and replacing it with dilutions of peptides and controls, incubating for a further 24 hours and then staining of the cells with the second generation tetrazolium dye, XTT. […]

[6] = test system: MS Staphylococcus aureus ATCC 9144; format: cell-based; conditions: MSSA9144; medium and unit inferred
VRE12201 = test: Antibacterial activity assay (broth microdilution MIC); format: cell-based, Enterococcus faecalis; conditions: medium and unit inferred
Text: Antibacterial activity assay.
The bacterial strains used are as in the above examples. A table of strains is provided below to aid understanding.

HeLa = test: Cytotoxicity assay (XTT); format: cell-based, human; set-up: Toxicity HeLa: unit not given beside the values; conditions: unit not given
Protocol: as §6

[7] = test system: Escherichia coli NCTC 12923; format: cell-based; conditions: EC12923; medium and unit not given; in µg/mL
[8] = test system: Acinetobacter baumannii ATCC 17978; format: cell-based; conditions: AB17978; medium and unit not given; in µg/mL
[9] = test system: Pseudomonas aeruginosa NCTC 13437; test: Antibacterial activity assay (broth microdilution MIC); format: cell-based; conditions: PA13437; medium and unit not given; in µg/mL
C. albicans = test: MIC on initial panels, fungi; format: cell-based; conditions: unit inferred
[10] = test system: EMR Staphylococcus aureus-16 (EMRSA-16); format: cell-based; conditions: EMRSA16; medium and unit not given; in µg/mL
[11] = test system: VS Enterococcus faecalis NCTC 775; test: Antibacterial activity assay (broth microdilution MIC); format: cell-based; conditions: VSE775; medium and unit not given; in µg/mL
[12] = test system: EMR Staphylococcus aureus-15 (EMRSA-15); format: cell-based; conditions: EMRSA15; medium and unit inferred
[13] = test system: Acinetobacter baumannii AYE; format: cell-based; conditions: AYE; medium and unit not given; in µg/mL
Klebsiella pneumoniae M6 = format: cell-based; conditions: medium and unit not given, in µg/mL
[14] = test system: Pseudomonas aeruginosa PA01; test: Antibacterial activity assay (broth microdilution MIC); format: cell-based; conditions: medium and unit not given, in µg/mL
[15] = test system: Klebsiella pneumoniae NCTC 13368; format: cell-based; conditions: KP13368; medium and unit not given; in µg/mL
[16] = test system: P. aeruginosa RP73 lung infection; test: Murine P. aeruginosa RP73 lung infection model; format: in vivo, mouse

CN[C@H](CC(C)C)C(=O)N[C@H]1C(=O)N[C@@H](CC(N)=O)C(=O)N[C@H]2C(=O)N[C@H]3C(=O)N[C@H](C(=O)N[C@H](C(=O)O)c4cc(O)cc(O)c4-c4cc3ccc4O)[C@H](O)c3ccc(c(Cl)c3)Oc3cc2cc(c3O[C@@H]2O[C@H](CO)[C@@H](O)[C@H](O)[C@H]2O[C@H]2C[C@](C)(N)[C@H](O)[C@H](C)O2)Oc2ccc(cc2Cl)[C@H]1O [Vancomycin]
susceptibility category (CLSI M100 interpretive criteria) ([1]; ATCC 29213): S
MIC ([1]; ATCC29213, 18 h, read-out: MIC, antibiotic susceptibility, ATCC 29213, CLSI M7-A10, unit inferred): 0.5 to 1 µg/mL (≈ 0.345 to 0.69 µM)
MIC ([1]; ATCC29213, ATCC 29213, MHB): 0.5 µg/mL (≈ 0.345 µM)
MIC ([1]; ATCC29213, ATCC 29213, RPMI + 5% FBS): 2 µg/mL
susceptibility category (CLSI M100 interpretive criteria) ([2]; BAA-1556): S
MIC ([2]; ATCC BAA-1556, MHB): 0.5 µg/mL (≈ 0.345 µM)
MIC ([2]; ATCC BAA-1556, RPMI + 5% FBS): 2 µg/mL
MIC ([2]; ATCCBAA1556|BAA1556|MRSA|USA300, 18 h, read-out: MIC, antibiotic susceptibility, BAA-1556, CLSI M7-A10, unit inferred): 0.5 to 1 µg/mL (≈ 0.345 to 0.69 µM)
susceptibility category (CLSI M100 interpretive criteria) ([3]; ATCC 33591): S
MIC ([3]; ATCC 33591, MHB): 1 µg/mL (≈ 0.69 µM)
MIC ([3]; ATCC 33591, RPMI + 5% FBS): 4 µg/mL
MIC ([3]; ATCC33591|MRSA, 18 h, read-out: MIC, antibiotic susceptibility, ATCC 33591, CLSI M7-A10, unit inferred): 1 µg/mL (≈ 0.69 µM)
susceptibility category (CLSI M100 interpretive criteria) ([4]; ATCC 19636 (Smith)): S
MIC ([4]; ATCC19636, 18 h, read-out: MIC, antibiotic susceptibility, ATCC 19636 (Smith), CLSI M7-A10, unit inferred): 1 µg/mL (≈ 0.69 µM)
MIC ([4]; ATCC19636, ATCC 19636 (Smith), MHB): 0.5 µg/mL (≈ 0.345 µM)
MIC ([4]; ATCC19636, ATCC 19636 (Smith), RPMI + 5% FBS): 2 µg/mL
IL-6 and neutrophil recruitment in BAL (EMRSA-15 lung infection; following therapy, i.v.): reduced
macrophage numbers, TNFα and MCP-1 levels in BAL (EMRSA-15 lung infection; following therapy, i.v.): No effects
effective cumulative dose over 48 hrs (EMRSA-15 lung infection; murine EMRSA-15 lung infection): 200 mg/kg
mouse KC levels in BAL (EMRSA-15 lung infection; vancomycin 600 mg/kg or the two higher D-pleurocidin-KR doses (15, 1.5 mg/kg cumulative)): KC levels to fall to that of the uninfected group
MIC ([5]; 18 h, read-out: MIC, antibiotic susceptibility, VRS-2, CLSI M7-A10, unit inferred): > 64 µg/mL
MIC ([5]; VRS-2, MHB): 4 µg/mL (≈ 2.76 µM)
MIC ([5]; VRS-2, RPMI + 5% FBS): > 32 µg/mL
susceptibility category (CLSI M100 interpretive criteria) ([5]; VRS-2): R

GWGSFFRRAAHAGRHAGRAALTHYL-NH2 [D-pleuro-VAKR, 6x substituted (4 K->R plus 2 V->A), D-amino acids]
Toxicity HEK293 (HEK293): 201.2 ± 25.1
MIC on initial panels [6]: 8 µg/mL
MIC on initial panels (VRE12201): 128 µg/mL
Toxicity HeLa (HeLa): 124.0 ± 30.4
MIC on initial panels [7]: 2
MIC on initial panels [8]: 2
MIC on initial panels [9]: 32
MIC on initial panels, Fungi (C. albicans): 32 µg/mL
MIC on initial panels [10]: 64
MIC on initial panels [11]: 32-64
MIC on initial panels [12]: 32 µg/mL
MIC on initial panels [13]: 2
MIC on initial panels (Klebsiella pneumoniae M6): 4
MIC on initial panels [14]: 4
MIC on initial panels [15]: 4-8

NC[C@H]1O[C@H](O[C@H]2[C@H](O)[C@@H](O[C@H]3O[C@H](CO)[C@@H](O)[C@H](N)[C@H]3O)[C@H](N)C[C@@H]2N)[C@H](N)C[C@@H]1O [tobramycin]
reduction in lung CFU ([16]; 25 mg/kg tobramycin (p=0.0919)): 0.8 log10
reduction in lung CFU ([16]; cumulative dose of 200 mg/kg tobramycin over 30 hours): 1.4 log10
